Drawing on ChEMBL document CHEMBL5727303, “Substituted perhydropyrrolo[3,4-c]pyrrole derivatives and the use of same” (2019), this text covers IC50 for one compound.

The target of assay [1] is Potassium channel subfamily K member 9 (Homo sapiens, UniProt Q9NPC2). Briefly: (§1) In Vitro Electrophysiological Assay: In Vitro Electrophysiological Analysis of the Human TASK-1 and TASK-3 Channels Via Two-Electrode Voltage Clamp Technique in Xenopus laevis OocytesSubsequently, the oocytes were injected with 0.5-5 ng of a cRNA solution coding for TASK-1 or TASK-3. For the electrophysiological analysis of the channel proteins expressed in the oocytes, the two-electrode voltage clamp technique was used. The measurements were conducted at room temperature (21-22° C.) using a Turbo TEC 10CD amplifier (NPI), recorded at 2 kHz and filtered with 0.4 kHz. Substance administration was performed using a gravitation-driven perfusion system. Here, the oocyte is located in a measuring chamber and exposed to the solution stream of 10 ml/min. The level in the measuring chamber is monitored and regulated by sucking off the solution using a peristaltic pump. Format: cell-based.
Potassium channel subfamily K member 9, sequence (Q9NPC2 whole entry, the tested form may be a part): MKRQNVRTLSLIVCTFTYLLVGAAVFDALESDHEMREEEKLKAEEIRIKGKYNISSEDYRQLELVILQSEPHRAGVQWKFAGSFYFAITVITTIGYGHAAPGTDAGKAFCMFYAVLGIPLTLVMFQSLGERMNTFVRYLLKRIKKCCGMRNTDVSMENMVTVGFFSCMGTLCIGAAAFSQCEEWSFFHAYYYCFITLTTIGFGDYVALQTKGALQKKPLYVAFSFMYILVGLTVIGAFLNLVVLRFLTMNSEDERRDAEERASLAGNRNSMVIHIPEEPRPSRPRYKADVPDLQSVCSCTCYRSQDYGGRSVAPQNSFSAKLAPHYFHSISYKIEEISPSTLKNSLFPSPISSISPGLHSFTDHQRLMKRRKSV

Assay [2] has as its target Potassium channel subfamily K member 3 (Homo sapiens, UniProt O14649). The assay is described as §1. Format: cell-based.

Potassium channel subfamily K member 3, sequence (O14649 whole entry): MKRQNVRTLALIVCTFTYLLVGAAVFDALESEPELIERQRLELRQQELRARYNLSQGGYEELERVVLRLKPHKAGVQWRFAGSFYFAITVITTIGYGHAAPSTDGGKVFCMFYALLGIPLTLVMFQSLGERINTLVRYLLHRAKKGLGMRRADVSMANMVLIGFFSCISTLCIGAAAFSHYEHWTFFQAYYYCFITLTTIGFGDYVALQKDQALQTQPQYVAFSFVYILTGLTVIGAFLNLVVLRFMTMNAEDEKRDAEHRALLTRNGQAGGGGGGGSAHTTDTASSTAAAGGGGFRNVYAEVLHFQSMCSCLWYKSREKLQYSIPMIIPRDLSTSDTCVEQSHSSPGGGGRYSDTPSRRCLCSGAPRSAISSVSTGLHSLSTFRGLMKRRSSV

With `CCOc1ccccc1NC(=O)N1CC2CN(Cc3c(-c4ccc(Br)cc4)nc4ccccn34)CC2C1` (configuration not stated), the concentration for half-maximal inhibition (IC50) in assay [1] amounted to 3700 nM; in assay [2] it was 740 nM.
